The source of these data is patent publication US8067243B2 (priority 2008, dated 2011).

Where two headings read alike, the source gives them in different places.

The conditions of data set [1]: drug screen, cited from earlier work.
For data set [2] the following is noted: human, in vivo.
The conditions of data set [3]: in vivo, cited from earlier work.
The conditions of data set [4]: in vivo; cited from earlier work.

On to `CCC1(CCC(C)C)C(=O)NC(=O)NC1=O` [Amobarbital], for which the “Retention Time” value in data set [1] is 1 to 7 days.

Turning to `CC(N)Cc1ccccc1` (centres unmarked) [Amphetamine], the “Retention Time” value in data set [1] is 1 to 2 days.

For `C=CCC1(C(C)C)C(=O)NC(=O)NC1=O` [Aprobarbital], the “Retention Time” value in data set [1] was 1 to 7 days.

Consider `CCC(C)C1(CC)C(=O)NC(=O)NC1=O` (centres unmarked) [Butabarbital], for which, in data set [1], the “Retention Time” value is 1 to 7 days.

On to `C=CCC1(CC(C)C)C(=O)NC(=O)NC1=O` [Butalbital], for which the “Retention Time” value in data set [1] was 0.042 to 2 days.

On to `CN1[C@H]2CC[C@@H]1[C@@H](C(=O)O)[C@@H](OC(=O)c1ccccc1)C2` [Cocaine metabolite], for which the “Retention Time” value in data set [1] was 1 to 2 days.

For the molecule `COc1ccc2c3c1O[C@H]1[C@@H](O)C=C[C@H]4[C@@H](C2)N(C)CC[C@@]341` [Codeine], in data set [2], the “Result (urine concentration)” value came to 327 ng/mL. Besides, in data set [3] (po), the “time to peak plasma concentration” value is on record as “one”.

On to `CCO` [Ethanol], for which, in data set [1], the “Retention Time” value is 0.083 to 0.583 days.

For `COc1ccc2c3c1O[C@H]1C(=O)CC[C@H]4[C@@H](C2)N(C)CC[C@]314` [Hydrocodone], in data set [4], the “Retention Time” value was 1 to 3 days and the “detection of free drug in urine by LC/MS/MS after administration” value is 3 days. Also, the “Result (urine concentration)” value in data set [2] stood at 864 ng/mL.

In the case of `CCOC(=O)C1(c2ccccc2)CCN(C)CC1` [Meperidine], the “Retention Time” value in data set [4] was 1 to 2 days. Besides, the plasma half-life in data set [3] was 3 h.

In the case of `CN1CC[C@]23c4c5ccc(O)c4O[C@H]2[C@@H](O)C=C[C@H]3[C@H]1C5` [Morphine], the “Result (urine concentration)” value in data set [2] is reported as 104 ng/mL. In data set [3], the “dose excreted in urine as morphine-3-glucuronide” value was 70%.

For the molecule `CCOC(=O)C1(c2ccccc2)CCNCC1` [Normeperidine], in data set [3], the plasma half-life is 20 h.

On to `COc1ccc2c3c1O[C@H]1C(=O)CC[C@@]4(O)[C@@H](C2)N(C)CC[C@]314` [Oxycodone], for which, in data set [4], the “Retention Time” value was 1 to 3 days, the “Retention Time (SR)” value is reported as “(SR 2-4 days)”, the “detection of free drug in urine by LC/MS/MS after administration” value was “up to 3 days” and the “detection of free drug in urine by LC/MS/MS after slow-release dosage form” value was “up to 4 days”. Besides, in data set [2], the “Result (urine concentration)” value came to 544 ng/mL. Besides, in data set [3] (po), the “oral dose eliminated in urine as oxymorphone” value was “about 14%” and the “oral dose eliminated in urine as total oxycodone” value is “approximately 60%”.

Turning to `CN1CC[C@]23c4c5ccc(O)c4O[C@H]2C(=O)CC[C@@]3(O)[C@H]1C5` [Oxymorphone], in data set [4], the “Retention Time” value was 1 to 3 days, the “Retention Time (SR)” value was “(SR 2-4 days)”, the “detection of free drug in urine by LC/MS/MS after administration” value was “up to 3 days” and the “detection of free drug in urine by LC/MS/MS after slow-release dosage form” value was “up to 4 days”. In addition, the “Result (urine concentration)” value in data set [2] is given as 223 ng/mL. The “dose excreted in urine” value in data set [3] was “About 49%”.

Consider `CCCC(C)C1(CC)C(=O)NC(=O)NC1=O` (centres unmarked) [Pentobarbital], for which the “Retention Time” value in data set [1] is 0.042 to 1 days.

Regarding `c1ccc(C2(N3CCCCC3)CCCCC2)cc1` [Phencyclidine], the “Retention Time, Chronic Use” value in data set [1] (chronic use) is “up to 30 days”. Also, the “Retention Time” value in data set [1] was 8 days.

Take `C=CCC1(C(C)CCC)C(=O)NC(=O)NC1=O` (centres unmarked) [Secobarbital]: the “Retention Time” value in data set [1] was 0.042 to 1 days.

For `CC(=O)Oc1ccc2c3c1O[C@H]1[C@@H](OC(C)=O)C=C[C@H]4[C@@H](C2)N(C)CC[C@@]341` [heroin, diacetyl morphine], the “heroin dose excreted as morphine-3-glucuronide” value in data set [3] was “Approximately 42%”.
